Patent US8586369B2, “Ion channel-forming peptides” (The Regents of the University of California, priority 2007, dated 2013)

How the values were obtained:
Type in all cases: biochemical
[1] = Single channel recordings of gA derivatives in planar lipid bilayers (Example 2); conditions: 20 mM KCl
Description: Formation of Planar Lipid Bilayers: Planar lipid bilayers were formed by the “folding technique.” Briefly, a film (e.g., Teflon®, Eastern Scientific Inc, pore diameter 0.1-0.2 mm) that was pretreated on both sides of the pore with 2 μL of 5% (v/v) hexadecane in pentane. This film was mounted using vacuum grease (Dow Corning, High vacuum grease) to a custom-made Teflon chamber separating two buffer compartments each with a volume capacity of 4 mL. After addition of 1 mL of electrolyte (20 mM KCl buffered with 0.2 mM HEPES pH 7.4 or 140 mM KCl buffered with 10 mM phosphate pH 8.0) to each compartment, lipids were spread at the air-water interface of the electrolyte solution in both compartments. Three additional milliliters of the same electrolyte solution were added to each compartment to raise the liquid level above the aperture in the Teflon film. The bilayers were formed on the pore of the Teflon film by aspirating the electrolyte solution into a 3 mL syringe, followed by dispensing the electrolyte solution back into each compartment.
Ion Channel Measurements: Single channel recordings in “voltage clamp mode” were performed using Ag/AgCl pellet electrodes (Warner Instruments) in each compartment of the bilayer setup. Data acquisition and storage was carried out using custom software in combination with an EPC-7 patch clamp amplifier from Heka (set at a gain of 10 mV pA^−1 and a filter cutoff frequency of 3 kHz). The data acquisition board for the amplifier was set to a sampling frequency of 15 kHz. All current traces shown in the figures were further filtered using a digital Gaussian low-pass filter with a cutoff frequency of 4 Hz.
The analysis of single channel current traces was performed by computing histograms of the currents from the original current versus time traces with ClampFit 9.2 software from Axon Instruments. From these histograms, main current values were extracted by fitting a Gaussian function to the peaks in the histograms. […]

[2] = Monitoring a 1,3-dipolar cycloaddition (click) reaction in situ using single ion channel recordings; conditions: 40 pM gramicidazide, 2 mM propargyl sulfonate, 0.5 mM CuSO4
Description: Gramicidazide was added to a final concentration of 40 pM to both 4 mL chambers of a stirred lipid bilayer setup comprised of zwitterionic 1,2-diphytanoyl-sn-glycero-3-phosphatidylcholine (DiPhyPC) lipids that separated two compartments containing 20 mM KCl, 0.2 mM HEPES buffer, 2 mM sodium ascorbate (as a reducing agent for Cu^II), and 2 mM propargyl sulfonate. The final pH of this solution was 6.9. CuSO4 was added (to give a final concentration of Cu^II of 0.5 mM) to both chambers of the bilayer setup and recorded the single ion channel activity over time. […] The cycloaddition reaction was monitored at a constant applied potential of +75 mV. […]
Monitoring a 1,3-dipolar cycloaddition (“click”) reaction in situ using single ion channel recordings: About 3 μl, (from a 100 ng mL^−1 solution in ethanol) of gramicidazide was added (to afford a final concentration of 40 pM of gramicidazide) to each compartment of a bilayer setup containing as electrolyte 20 mM KCl and 0.2 mM HEPES buffer. […] This strategy made it possible to observe measured currents that would frequently return to baseline (i.e., current steps separated by no observed channel events). Consequently, a small number of events over time were observed, and thus analyzed the data over a window of time rather than at specific time points. […] For the 4-15 minute time window, we measured 26 total channel events. […]

[3] = Single channel conductance of gA phosphate and its hydrolysis product in planar lipid bilayers (Example 3); conditions: for single channel conductance (γ): 50 mM CsCl, 1 mM MgCl2, 0.5 mM K2CO3, pH 9.8, slopes of I-V curves
Description: Formation of Planar Lipid Bilayers: Planar lipid bilayers were formed by the “folding technique” as previously described. The recording electrolyte was 1 mM MgCl2, 50 mM CsCl buffered with 0.5 mM K2CO3 at pH 9.8. Briefly, we spread a solution containing 25 mg mL^−1 1,2-diphytanoyl-sn-glycero-3-phosphatidylcholine (DiPhyPC) lipids in pentane at the air-water interface of the electrolyte solution in both compartments of the bilayer setup. 3 mL of the total volume of 4 mL of electrolyte solution in each bilayer compartment was aspirated into a syringe, followed by dispensing the electrolyte solution back into each compartment.
Ion Channel Measurements: We performed single channel recordings in “voltage clamp mode” using Ag/AgCl pellet electrodes (Warner Instruments) in each compartment of the bilayer setup. Data acquisition and storage was carried out using custom software in combination with an EPC-7 patch clamp amplifier from Heka (set at a gain of 10 mV pA-1 and a filter cutoff frequency of 3 kHz). The data acquisition board (National Instruments, Austin, Tx) for the amplifier was set to a sampling frequency of 15 kHz. The current traces shown in the FIG. 2 were further filtered using a digital Gaussian low-pass filter with a cutoff frequency of 4 Hz.
Analysis of the single channel current traces was performed by computing histograms of the currents from the original current versus time traces with ClampFit 9.2 software from Axon Instruments. From these histograms we extracted the main current values by fitting a Gaussian function to the peaks in the histograms. All conductance values were obtained from the slopes of I-V curves.

[4] = system: alkaline phosphatase (AP); assay: Enzymatic hydrolysis of gA phosphate in the presence of AP monitored by single ion channel recordings
Description: To detect a change in single ion channel currents, gA phosphate was added to a final concentration of about 200 pM to both compartments of a planar lipid bilayer platform (FIG. 15) containing a recording electrolyte. AP was added to a final concentration of about 600 nM and the enzymatic conversion of gA phosphate to its hydrolysis product over time was monitored. We estimated the time-dependent conversion of gA phosphate to its hydrolysis product by comparing the fraction of events from gA phosphate to the fraction of events from its hydrolysis product throughout the course of the reaction. […]
Procedure for monitoring the enzymatic hydrolysis of 6 in the presence of AP using single ion channel recordings: For in situ measurements, about 19 μL (from a 100 ng mL-l solution in ethanol) of gA phosphate (to afford a final concentration of 200 pM of 6) was added to each compartment of a bilayer setup containing recording electrolyte. […] Ion channel events were recorded continuously over the course of the reaction. […] Single ion channel events were recorded during a 10 min time window once a day (50-250 events) over the course of 4 days by filling both compartments of the bilayer setup with 4 mL of the solutions with the desired AP concentration. […]

| Substance | single channel conductance (γ) ([1]; 0.2 mM HEPES, 2 mM sodium ascorbate, 2 mM propargyl sulfonate, 0.5 mM CuSO4, pH 6.9, pure samples) | ion channel activity in planar lipid bilayers ([1]; applied potential 100 mV, 0.2 mM HEPES pH 7.4) | time after which the click reaction was complete [2] | single channel conductance (γ) [3] | single channel conductance (γ) ([3]; listed as 6) | single channel conductance (γ) ([3]; listed as phosphorylated derivative) | factor by which conductance is larger than that of the gA phosphate hydrolysis product ([3]; 125 mV, buffered recording electrolyte) | time after which almost all recorded ion channel events originated from the hydrolysis product ([4]; 200 pM gA phosphate, 600 nM AP, in situ) | hydrolysis in the absence of AP ([4]; ion channel experiments over the course of 1 h, pH 9.8 recording electrolyte) |
| --- | --- | --- | --- | --- | --- | --- | --- | --- | --- |
| gramicidazide | 3.3±0.1 pS | retained well-defined ion channel activity | ~90 min | – | – | – | – | – | – |
| gramicidine A (gA) phosphate [gA phosphate] | – | – | – | ≈ 16 pS | 16.4±0.3 pS and ≈ 16 pS | 16.4±0.3 pS | 4 | 35 min | No hydrolysis was observed |
